# In patent US20030004187A1, “Method for preventing dyskinesias” (priority 2001, published 2003):
# “And” between values parts separate entries of the source, which are not always exact repeats. Equal entries are not always repeated.
# How the values were obtained:
# [1] = tested on: MPTP-treated monkeys; settings: 3 to 30 mg/kg, cited from earlier work
# [2] = tested on: MPTP monkey; assay: Side effects and stereotypies observed during 1-month treatment; settings: CI-1041 10 mg/kg per os with L-Dopa
# Protocol: The experiments were performed in accordance with the standards of the Canadian Council on Animal care using eight female cynomolgus (Macaca fascicularis) monkeys weighing 3.0 to 3.5 kg. They were housed separately in individual observation cages equipped with an electronic motility monitoring system (Datascience, St. Paul, Minnesota) in a temperature-controlled room and exposed to a 12-hour light/dark cycle (lights on 6 AM-6 PM). They were fed once daily in the afternoon (certified primate chow and fruits), and water was provided ad libitum. […] The animals were scored several times a week using a disability scale described below, where the normal state extends from 0 to 2, and maximal disability is 16 points. […]
# The severity of dyskinesias was also rated every 30 minutes for each body segment: the face, neck, trunk, arms, and legs in the following way: None=0; Mild=1; Moderate=2; Severe=3. The difference between mild, moderate, and severe dyskinesias for a given body segment is based on the assessment of the amplitude of the abnormal movements and the frequency (whether they are occasional, intermittent, or constant); each body segment being scored separately based on assessment of observation in the preceding half hour. […]
# [3] = biological target: NR1A/2B cloned NMDA receptors (Homo sapiens, UniProt Q05586+Q13224); settings: cited from earlier work
# [4] = tested on: MPTP monkey; assay: Delay and duration of L-Dopa response; type: in vivo, cynomolgus (Macaca fascicularis) monkeys; design: Delay of L-Dopa response / Duration of L-Dopa response: unit not given here; settings: for Delay of L-Dopa response / Duration of L-Dopa response: mean ± SEM
# [5] = tested on: 6-OHDA-lesioned hemiparkinsonian rat model; settings: cited from earlier work
# [6] = tested on: MPTP monkey; assay: Induction of L-Dopa-induced dyskinesias in de novo MPTP parkinsonian monkeys (dyskinetic score); type: in vivo, cynomolgus (Macaca fascicularis) monkeys; settings: for Dyskinesia induction (in words): 4 weeks treatment, L-Dopa/benserazide 100/25 mg alone or plus CI-1041 10 mg/kg per os, FIG. 1
# [7] = tested on: PD patients; settings: cited from earlier work
# [8] = tested on: MPTP monkey; assay: Locomotor activity by electronic motility monitoring system; type: in vivo, cynomolgus (Macaca fascicularis) monkeys; settings: FIG. 2B; maintained during the 4 weeks
# [9] = tested on: MPTP monkey; assay: Antiparkinsonian response, disability scale for MPTP monkey (parkinsonian score); type: in vivo, cynomolgus (Macaca fascicularis) monkeys
# [10] = tested on: 6-OHDA-lesioned rats; settings: systemic administration; cited from earlier work
# [11] = tested on: PD patients; settings: published observation in PD patients; cited from earlier work
# Chain of NR1A/2B cloned NMDA receptors (Q13224 27-1484, other chains not shown): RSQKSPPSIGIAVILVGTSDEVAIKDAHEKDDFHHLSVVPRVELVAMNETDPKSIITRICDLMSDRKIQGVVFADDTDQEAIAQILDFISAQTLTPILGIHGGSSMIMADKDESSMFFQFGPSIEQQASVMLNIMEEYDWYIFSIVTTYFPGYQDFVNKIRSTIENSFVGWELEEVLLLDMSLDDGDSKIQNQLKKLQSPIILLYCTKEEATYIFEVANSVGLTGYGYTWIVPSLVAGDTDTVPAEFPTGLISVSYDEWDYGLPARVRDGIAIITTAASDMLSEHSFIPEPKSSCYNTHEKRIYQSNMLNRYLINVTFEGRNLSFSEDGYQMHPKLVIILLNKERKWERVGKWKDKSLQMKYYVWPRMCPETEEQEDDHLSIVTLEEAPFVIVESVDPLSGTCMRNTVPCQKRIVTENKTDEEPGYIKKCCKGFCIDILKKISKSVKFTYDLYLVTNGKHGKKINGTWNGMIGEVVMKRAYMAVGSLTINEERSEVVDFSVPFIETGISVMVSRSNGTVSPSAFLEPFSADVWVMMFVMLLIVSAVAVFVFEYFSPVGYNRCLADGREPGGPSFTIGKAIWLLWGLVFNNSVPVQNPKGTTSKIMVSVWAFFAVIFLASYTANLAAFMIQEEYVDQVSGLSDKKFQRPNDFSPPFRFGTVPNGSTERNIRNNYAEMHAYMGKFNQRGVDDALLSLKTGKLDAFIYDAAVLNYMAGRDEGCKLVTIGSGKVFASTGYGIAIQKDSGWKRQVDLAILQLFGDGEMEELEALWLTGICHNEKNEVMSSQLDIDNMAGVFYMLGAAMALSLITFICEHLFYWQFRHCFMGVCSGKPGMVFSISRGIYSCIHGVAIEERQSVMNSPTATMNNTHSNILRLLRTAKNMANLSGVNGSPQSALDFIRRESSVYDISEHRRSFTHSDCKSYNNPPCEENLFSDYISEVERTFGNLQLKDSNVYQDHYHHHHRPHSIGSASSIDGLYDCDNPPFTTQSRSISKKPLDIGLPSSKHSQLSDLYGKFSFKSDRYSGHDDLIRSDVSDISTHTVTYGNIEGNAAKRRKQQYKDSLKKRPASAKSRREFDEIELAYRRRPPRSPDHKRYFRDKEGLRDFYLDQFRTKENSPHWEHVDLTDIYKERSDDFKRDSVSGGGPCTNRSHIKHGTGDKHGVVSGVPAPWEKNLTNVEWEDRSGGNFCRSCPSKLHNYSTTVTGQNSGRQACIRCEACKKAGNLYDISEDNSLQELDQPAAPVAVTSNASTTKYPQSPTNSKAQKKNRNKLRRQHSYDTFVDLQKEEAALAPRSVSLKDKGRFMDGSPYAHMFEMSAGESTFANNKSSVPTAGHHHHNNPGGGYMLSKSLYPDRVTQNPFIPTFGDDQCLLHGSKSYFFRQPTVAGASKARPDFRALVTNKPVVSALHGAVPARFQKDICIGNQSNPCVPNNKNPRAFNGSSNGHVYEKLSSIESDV
smiles,measurement,setting,value
"O=c1[nH]c2ccc([S+]([O-])CCN3CCC(Cc4ccc(F)cc4)CC3)cc2o1 (centres unmarked) [CI-1041, 6-{2-[4-(4-fluoro-benzyl)-piperidin-1-yl]-ethanesulfinyl}-3H-benzooxazol-2-one]",Alteration in the antiparkinsonian effects of L-Dopa,[1]; in combination with L-Dopa,did not produce a consistent alteration
same,Antiparkinsonian activity when administered alone,[1],did not exhibit any antiparkinsonian activity
same,Side effects / tolerability,[2],"well-tolerated and no emesis, ataxia, or hallucinations were observed"
same,"Affinity, block of NR2B-containing NMDA receptors",[3]; allosteric modulation site,24 nM
same,Selectivity for NR1A/2B cloned NMDA receptors,[3],> 1000 fold
same,Effect of CI-1041 co-administration on delay and duration of the L-Dopa response (in words),[4]; trend for delayed response in first 2 weeks,not significantly affected
same,Contraversive rotation induced by L-Dopa,"[5]; peak rate and duration increased, maintained following 9 days of repeated co-administration",potentiated the contraversive rotation
same,Rotation induced by direct acting dopamine agonists SKF 38393 and quinpirole,"[5]; rat, in vivo",potentiated rotation
same,Rotation when given alone,"[5]; rat, in vivo",increased both contraversive and ipsiversive rotations
same,Dyskinesia induction (in words),[6]; 10 mg/kg,prevented dyskinesias
same,Dyskinesia induction (in words),[6]; listed as C-1041,completely prevented the induction of dyskinesias in three animals
N[C@@H](Cc1ccc(O)c(O)c1)C(=O)O [L-Dopa],Prevalence of dyskinesias,"[7]; human, in vivo",30-80%
same,Locomotion as compared to control (in words),[8],significant (P<0.01) increase in locomotion
same,Parkinsonian scores as compared to the control (in words),[9]; FIG. 2A,significantly (P<0.01) lowered
same,"Antiparkinsonian Efficacy (Min. Score), Mean ± SEM","[9]; group mean ± SEM, n=4, 28 days treatment",3.3 ± 0.2
same,Antiparkinsonian Efficacy,"[9]; individual animal, grade in words, 28 consecutive days of daily oral treatment",Good
same,Antiparkinsonian Efficacy (Min. Score),"[9]; individual animal, minimum parkinsonian score, maximal disability 16, 28 days treatment",2.8 and 3.7 and 3.4 (2×)
same,Delay of L-Dopa response,[4]; Day 7,47.3 ± 4.4^
same,Duration of L-Dopa response,[4]; Day 7,221.3 ± 46.0^
same,Delay of L-Dopa response,[4]; Day 14,59.5 ± 17.2
same,Duration of L-Dopa response,[4]; Day 14,189.3 ± 29.5^
same,Delay of L-Dopa response,[4]; Day 21,52.5 ± 10.3^
same,Duration of L-Dopa response,[4]; Day 21,222.5 ± 24.6^
same,Delay of L-Dopa response,[4]; Day 28,50 ± 5.8
same,Duration of L-Dopa response,[4]; Day 28,198.75 ± 25.5
same,Dyskinesia induction (in words),[6],moderate to severe
same,"Persistent Dyskinesia (Max Score), Mean ± SEM","[6]; group mean ± SEM, n=4",7.1 ± 1.3
same,Persistent Dyskinesia,"[6]; individual animal, Yes/None, 28 days treatment",Yes
same,Persistent Dyskinesia (Max Score),"[6]; individual animal, maximum dyskinetic score, maximal score 21",8.5 and 4 and 6 and 10
C[C@]12N[C@H](Cc3ccccc31)c1ccccc12 [MK-801],L-Dopa-induced motor fluctuations,[10],completely reversed and more interestingly prevented
NC12CC3CC(CC(C3)C1)C2 [amantadine],L-Dopa-induced dyskinesias in PD patients,"[7]; human, in vivo",reduced L-Dopa-induced dyskinesias
same,Maintenance of beneficial effects on motor response complications after treatment initiation,[7]; one study,at least 1 year
COc1ccc2c(c1)[C@]13CCCC[C@@H]1[C@H](C2)N(C)CC3 [dextromethorphan],L-Dopa-induced dyskinesias in PD patients,"[7]; human, in vivo",reduced L-Dopa-induced dyskinesias
CCCN[C@H]1CCc2nc(N)sc2C1 [pramipexole],Sleep attacks,[11],episodes of sudden onset of sleep
CCCN(CCC)CCc1cccc2c1CC(=O)N2 [ropinirole],Sleep attacks,[11],episodes of sudden onset of sleep
